Measurements reported in patent publication US5965605A, “Inhibition of the binding human IgE to its receptor by tetracyclic compounds for the alleviation of IgE-mediated immune response” (Heska Corporation, priority 1997, dated 1999).

Experiments:
[1] = molecular target: human IgE / soluble FcεRI α (Fc-FcεRIα fusion protein); test: Protein-based IgE-FcεRI binding assay (ELISA); conditions: for % Inhibition of IgE/FcεRI binding: 10 μg/ml
Experimental: A protein-based in vitro assay was developed to screen for compounds which block the interaction between IgE and FcεRI. This assay used human IgE and soluble FcεRI α proteins which were prepared as outlined below. As will be described more below, the assay was performed in the format of an Enzyme-linked ImmunoSorbent Assay (ELISA) as follows. ELISA plates were prepared by coating 96-well plates with soluble FcεRI α protein. In the binding step, biotinylated IgE was captured by the FcεRI α in the wells. In the detection step, bound biotinylated IgE was quantitated by the addition of avidin-horseradish peroxidase and a chromogenic substrate. For the screening of antagonists, the IgE and FcεRI binding assay was performed in the presence of various testing compounds. Compounds that inhibit the interaction between IgE and FcεRI α could be readily detected. This assay was then applied to screen tens of thousand of compounds from a diversified chemical library.
To provide IgE for the ELISA, a recombinant IgE DNA construct was built by ligating a mouse heavy chain variable region, Vh, gene fragment to a human IgE heavy chain, Cε.
The growth medium collected from the above transfected cell culture was concentrated 30-50 times by membrane filtration (Filtron, Northboro, Mass.) and passed through a column of NIP (Genosys Biotechnologies Inc.)-bovine serum albumin (BSA) sepharose. The bound IgE was subsequently eluted from NIP-BSA sepharose using 5 M MgCl2. The eluate was then dialyzed in phosphate buffered saline (PBS). The integrity of the purified IgE was analyzed by SDS-polyacrylamide gel electrophoresis.
To provide soluble FcεRI α protein for ELISA, a DNA construct was made to produce soluble FcεRI α as a protein fused to the Fc region of the human immunoglobulin G heavy chain. The protein product of the construct will he termed Fc-FcεRIα.
The culture media of the cells producing Fc-FcεRI α fusion protein was collected and passed through a Protein A Sepharose column (Repligen, Cambridge, Mass.). The bound fusion protein was eluted from the Protein A Sepharose in 100 mM sodium citrate buffer (pH 4.0) and immediately neutralized with 0.1 volume of 1M Tris-hydrochloride, pH 8. The integrity of the purified protein was analyzed by SDS-polyacrylamide gel electrophoresis.
Fc-FcεRIα was diluted to 0.4 μg/ml in PBS and was used to coat 96-well plates. One hundred microliters of the FcεRIα fusion protein was added to wells of the 96-well plates, and the plate was incubated at 4° C. for 20 hr and washed twice with PBS/T (PBS containing 0.05% Tween-20). The non-specific binding sites in each of the wells were blocked with 200 μl of blocking buffer (PBS containing 1% of BSA and 1% of goat serum) at 37° C. for 2 hr. The plates were then washed 4 times with PBS/T and stored frozen at -20° C. The plates were thawed at room temperature just before use.
IgE was biotinylated as follows. Ten microliters of a 40 mg/ml sulfosuccimidyl 6-(biotinamido)-hexanolate (Pierce, Rockford, Ill.) in dimethylsulphoxide was added to 1 ml of 1 mg/ml IgE in sodium bicarbonate buffer, pH 8.0. After a 4 hr incubation at room temperature, the biotinylation was terminated by the addition of 25 μl of 2M Tris hydrochloride, pH 8 and the resulting biotinylated IgE was diayzed against PBS.
One hundred microliter of this solution was added to wells of a 96-well plate which had been previously coated with Fc-FcεRIα. […] After an additional one hour incubation at room temperature,the plate was again washed four times with PBS/T. The reaction with Avidin-HRP was developed by the addition of 100 μl of K-blue (Elisa Technologies, Lexington, Ky.) to each well.

[2] = molecular target: T1, human FcεRI transfected rat basophil leukemia cell line, SX38 (Homo sapiens, UniProt P01854+P12319); test: Cell-based IgE-FcεRI binding assay; conditions: for IC50: read-out: IC50, inhibition of IgE-FcεRI binding (converted)
T1 construct: biotinylated recombinant IgE (mouse VH, human Cε, J558L)
T1 sequence (P12319 26-257): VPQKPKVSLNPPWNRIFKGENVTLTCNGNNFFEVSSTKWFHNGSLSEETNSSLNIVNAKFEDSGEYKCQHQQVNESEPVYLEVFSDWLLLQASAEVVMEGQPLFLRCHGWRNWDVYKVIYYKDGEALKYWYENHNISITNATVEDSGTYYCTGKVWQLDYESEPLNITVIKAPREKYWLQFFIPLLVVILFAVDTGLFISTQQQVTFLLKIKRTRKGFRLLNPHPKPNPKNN
T1 sequence (P01854 whole entry): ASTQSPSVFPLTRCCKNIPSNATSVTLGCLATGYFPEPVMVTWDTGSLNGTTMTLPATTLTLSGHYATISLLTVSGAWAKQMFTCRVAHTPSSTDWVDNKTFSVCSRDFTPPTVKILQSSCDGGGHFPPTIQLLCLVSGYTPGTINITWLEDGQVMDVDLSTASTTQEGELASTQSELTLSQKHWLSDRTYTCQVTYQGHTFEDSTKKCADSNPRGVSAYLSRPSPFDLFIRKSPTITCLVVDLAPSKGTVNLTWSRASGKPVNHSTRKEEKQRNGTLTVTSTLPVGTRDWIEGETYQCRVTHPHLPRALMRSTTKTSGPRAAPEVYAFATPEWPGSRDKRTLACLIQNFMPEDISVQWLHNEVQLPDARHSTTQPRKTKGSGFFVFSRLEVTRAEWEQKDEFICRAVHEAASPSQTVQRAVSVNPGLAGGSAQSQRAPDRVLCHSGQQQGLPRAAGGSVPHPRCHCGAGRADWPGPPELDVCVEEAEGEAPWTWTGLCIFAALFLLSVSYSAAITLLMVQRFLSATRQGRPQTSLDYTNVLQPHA
T1 sequence (Q01362 whole entry partner): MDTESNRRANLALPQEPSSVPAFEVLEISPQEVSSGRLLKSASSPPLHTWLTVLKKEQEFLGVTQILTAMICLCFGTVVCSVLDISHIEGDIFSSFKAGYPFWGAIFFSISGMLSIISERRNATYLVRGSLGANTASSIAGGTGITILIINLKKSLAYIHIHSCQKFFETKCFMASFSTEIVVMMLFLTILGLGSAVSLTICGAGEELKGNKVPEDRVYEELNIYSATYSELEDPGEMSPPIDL
T1 sequence (P30273 19-86 partner): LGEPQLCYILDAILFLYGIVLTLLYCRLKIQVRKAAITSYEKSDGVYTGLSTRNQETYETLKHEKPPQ
Experimental: About 1×10^5 cells in 50 μl of medium were seeded in the wells of 96-well flat bottom plates. […] Forty microliters of this solution was applied to each well and incubated at room temperature for two hours. The plates were washed three times with PBS, and 40 μl of avidin-horseradish peroxidase, at 1 μg/ml in PBS, was added to each well. After an additional hour of incubation at room temperature, the plate was again washed three times with PBS. The subsequent steps for the measurement of the bound IgE were performed as described in the protein-based IgE-FcεRI binding assay.

[3] = test system: IgE/FcεRI; test: in situ rat passive cutaneous anaphylaxis (PCA) model; assay type: in vivo, Sprague Dawley rats; conditions: for IC50, inhibition of anaphylaxis in the rat PCA model: in situ rat PCA model; for Percent inhibition of PCA reaction: injected into skin with 0.03 μg/ml IgE
Source text: The tetracyclic compounds that antagonized the IgE and FcεRIα interaction identified in the protein-based assay were further evaluated in the rat PCA model (Haak-Frendscho, et al., J. Immunol., 151:351-358, 1993). […] Mouse anti-dinitrophenyl IgE (Sigma ImmunoChemicals, St. Louis, Mo.) is a bifunctional antibody which binds to dinitrophenyl as well as FcεRI. Exposure of anti-dinitrophenyl-IgE to dinitrophenyl-albumin causes aggregation of the antibody and induces the IgE mediated immune response. […] Fifty microliters of these solutions were injected into the skin of the shaved back of Sprague Dawley rats (Taconic, Germantown, N.Y.). As a positive control, the same amount of anti-dinitrophenyl-IgE in the absence of a tetracyclic compound was injected into the skin of the same rat at a different site. After a period of two hours the sensitized rats were challenged with an intravenous injection of 1 mg/ml of dinitrophenyl-human albumin (Sigma ImmunoChemicals, St. Louis, Mo.) in 1% Evan's blue dye. Thirty minute later, the rats were killed and skinned. Percent inhibition was calculated by the reduction of blue dye at the tetracyclic compound treated injection sites versus the positive control sites.

[4] = test system: IgE/FcεRI; test: Systemic PCA model in rats; assay type: in vivo, Sprague Dawley rats
Experimental: The compounds that have activity in the in situ PCA model were tested in the systemic PCA model. This model measures usefulness of a tetracyclic compound for blocking PCA in rats when the tetracyclic compound is administered systemically and the rats were sensitized with IgE at the skin. In this example, compound I was administrate first into the rats by intravenous (I.V.) injection, and immediately thereafter 0.03 μg/ml of anti-dinitrophenyl/IgE was injected into the skin of the shaved back of Sprague Dawley rats. After a sensitization period of 1 hr, the sensitized rats were challenged with an intravenous injection of 1 mg/ml of dinitrophenyl human albumin in 1% Evan's blue dye. Thirty minutes later, the rats were killed and skinned. As a positive control, PBS, lacking a tetracyclic compound, was administered by I.V. injection into Sprague Dawley rats, and the rats were treated in the same manner as the test rats. Percent inhibition of PCA obtained in this model is calculated by determining reduction of blue dye extracted from the tetracyclic compound treated rats compared to the positive control rats.

[5] = Toxicity studies in mice, single I.V. injection; assay type: in vivo
Source text: The potential toxic side effects following systemic administration was investigated by administering compound 1 in PBS to mice in single I.V. injection.

[6] = Pharmacokinetic studies in rats; assay type: in vivo; conditions: blood, iv, rat, 10 mg/kg I.V.
Experimental: The pharmacokinetic (PK) profile of the compounds following systemic I.V. injection was measured. Compound 1 was formulated in PBS and given to a rat at 10 mg/kg. Blood was drawn from the rat at different time points after injection. The concentrations of compound 1 in the blood were measured by HPLC after separation from serum.

[7] = test system: rat basophil leukemia cells (RBL cells); test: Hexosaminidase release assay; assay type: cell-based; conditions: read-out: % Inhibition of IgE mediated hexosaminidase release
Experimental: Tetracyclic Compounds that antagonized the IgE and FcεRIα interaction identified in the protein-based assay and cell-based assay were further evaluated in a screening assay using rat basophil leukemia cells (RBL cells). […] About 2×10^5 RBL cells were seeded per well in a 96 well plate and were incubated overnight at 37° C. A mixture of biotinylated mouse IgE (100 μl of 0.125 μg/ml) and a tetracyclic compound, e.g. compound 2, in medium was added lo each well and was incubated for 1 hour at 37° C. The cells were then washed twice with triggering buffer (119 mM NaCl, 5 mM KCl, 25 mM disodium PIPES, 5.6 mM glucose, 1 mM CaCl2, 0.1% BSA), and pre-incubated in triggering buffer for 10 min. at 37° C. One hundred microliters of 0.02 μg/ml streptavidin in triggering buffer was then added and the cells were incubated for an additional 30 min. at 37° C. The 96 well plate is then centrifuged at 4° C. to pellet all cells, and 80 μl of the supernatant is harvested on ice and transferred to another 96 well plate. As a positive control, two aliquots of about 2×10^5 RBL cells were lysed with 100 μl of 0.2% Triton in triggering buffer, and the supernatant was harvested after centrifugation to pellet all cell debris. Addition of streptavidin to RBL cells, which have been incubated with biotinylated IgE will trigger the release of IgE mediated allergy mediators, such as histamine. Antagonization of IgE/FcεRI binding by a tetracyclic compound results in the release of a reduced level of allergy mediators. The release of allergy mediators was quantitated by assaying for the presence of the enzyme hexosaminidase in the supernatant The concentration of hexosaminidase was determined by hydrolysis of its substrate, p-NAG (p-nitrophenyl-N-acetate-[…], Sigma Chemical Co.) in citrate buffer (pH 4.5) at 37° C. for 1 hr.

Row | SMILES | IC50, inhibition of IgE/FcεRI binding [1] [µg/mL] | % Inhibition of IgE/FcεRI binding [1] [%] | inhibition at 10 µg/mL ([2]; 10 μg/ml) [%] | IC50 [2] [µM] | IC50, inhibition of anaphylaxis in the rat PCA model [3] [µg/mL] | further results
1 | CCOC(=O)c1ccccc1-c1c2cc(Br)c(=O)c(Br)c-2oc2c(Br)c(O)c(Br)cc12 [Compound 4] | 0.82 | 98 | 93 | 5.33 | 2.90 | 
2 | O=C(O)c1c(Cl)c(Cl)c(Cl)c(Cl)c1-c1c2ccc(=O)c(O)c-2oc2c(O)c(O)ccc12 [Compound 6] | 0.63 | 83 |  |  |  | 
3 | O=C(O)c1c(Cl)c(Cl)c(Cl)c(Cl)c1-c1c2cc(I)c(=O)c(I)c-2oc2c(I)c(O)c(I)cc12 (single isomer, unassigned) [Compound 1] | 0.34 | 98 | 46 | 12 | 0.46 | Percent inhibition of PCA reaction ([3]; 0.25 μg/ml): 5%; Percent inhibition of PCA reaction ([3]; 0.5 μg/ml): 66%; Percent inhibition of PCA reaction ([3]; 1 μg/ml): 100%; % Inhibition of PCA ([4]; 47 mg/kg I.V.): 2.0%; % Inhibition of PCA ([4]; 70 mg/kg I.V.): 64.0%; % Inhibition of PCA ([4]; 94 mg/kg I.V.): 104.0%; % Inhibition of PCA ([4]; 114 mg/kg I.V.): 102.0%; No. of Death ([5]; 400 mg/kg I.V., single injection, 3 mice): 0; LD50 ([5]; mouse, in vivo, iv, mice, single I.V. injection in PBS): > 400 mg/kg; concentration at 0 h ([6]; 0 minute): 83000 ng/mL; concentration at 0.25 h ([6]; 15 minute): 2510 ng/mL; concentration at 0.5 h ([6]; 30 minute): 902 ng/mL; concentration at 1 h ([6]; 60 minute): 720 ng/mL; concentration at 2 h ([6]; 120 minute): 625 ng/mL; concentration at 4 h ([6]; 240 minute): 512 ng/mL
4 | O=C(O)c1c(Cl)ccc(Cl)c1-c1c2cc(I)c(=O)c(I)c-2oc2c(I)c(O)c(I)cc12 [Compound 5] | 0.56 | 99 |  |  |  | 
5 | CCOC(=O)c1c(Cl)c(Cl)c(Cl)c(Cl)c1-c1c2cc(Br)c(=O)c(Br)c-2oc2c(Br)c(O)c(Br)cc12 [Compound 3] | 4.30 | 90 |  |  |  | 
6 | COC(=O)c1ccccc1-c1c2cc(Br)c(=O)c(Br)c-2oc2c(Br)c(O)c(Br)cc12 [Compound 7] | 1.46 | 87 | 84 | 6.65 |  | 
7 | O=c1c(Br)cc2c(-c3ccccc3S(=O)(=O)O)c3cc(Br)c(O)c(O)c3oc-2c1O [Compound 8] | 0.65 | 87 |  |  |  | 
8 | O=C(O)c1c(Cl)c(Cl)c(Cl)c(Cl)c1-c1c2cc(I)c(=O)c(I)c-2oc2c(I)c(O)c(I)cc12 (single isomer, unassigned) [Compound 2] | 0.38 | 100 |  | 5.65 | 1.10 | % Inhibition of IgE-FcεRI binding ([2]; 10 μg/ml): 62%; inhibition at 0.1 µg/mL ([7]; 0.1 μg/ml): 11%; inhibition at 0.62 µg/mL ([7]; 0.62 μg/ml): 19%; inhibition at 1.25 µg/mL ([7]; 1.25 μg/ml): 75%; inhibition at 2.5 µg/mL ([7]; 2.5 μg/ml): 96%; inhibition at 5 µg/mL ([7]; 5 μg/ml): 94%
